From ChEMBL document CHEMBL5252541, “Repurposing antipsychotic drugs into antifungal agents: Synergistic combinations of azoles and bromperidol derivatives in the treatment of various fungal infections” (Eur J Med Chem, 2017)
Active and inactive are the calls of the source. The calls are words filed in the database; no cut-off is given here.

How the values were obtained:
Candida albicans [1] = assay: Partial synergistic antifungal activity against Candida albicans ATCC 10231 assessed as fractional inhibitory concentration index measured for 72 hrs in presence of voriconazole; assay type: functional
Candida albicans [2] = assay: Antifungal activity against Candida albicans ATCC 90819 measured after 48 hrs by broth microdilution analysis; assay type: functional
Candida albicans [3] = assay: Potency index, ratio of posaconazole MIC to test compound MIC for antifungal activity against Candida albicans ATCC 10231 measured after 48 hrs by broth microdilution analysis; assay type: functional
HEK293 [4] = assay: Cytotoxicity against HEK293 cells assessed as cell survival at 8 microg/ml by XTT assay; assay type: toxicity, cell-based; details: human, dose 8 µg/ml
Candida albicans [5] = assay: Synergistic antifungal activity against Candida albicans ATCC 64124 assessed as compound MIC measured after 48 hrs in presence of itraconazole by checkboard based microplate reader analysis; assay type: functional
Candida albicans [6] = assay: Additive antifungal activity against Candida albicans ATCC MYA-1237 assessed as fractional inhibitory concentration index measured for 72 hrs in presence of posaconazole; assay type: functional
Candida albicans [7] = assay: Antifungal activity against Candida albicans ATCC MYA-1237 measured after 48 hrs by broth microdilution analysis; assay type: functional
Candida albicans [8] = assay: Synergistic antifungal activity against Candida albicans ATCC 64124 assessed as compound MIC measured after 48 hrs in presence of posaconazole by checkboard based microplate reader analysis; assay type: functional
[9] = Cytotoxicity against mouse J774.A1 cells assessed as cell survival at 32 microg/ml by XTT assay; assay type: toxicity, cell-based; details: at 32 µg/mL, read-out: Activity
[10] = Cytotoxicity against mouse J774.A1 cells assessed as cell survival at 64 microg/ml by XTT assay; assay type: toxicity, cell-based; details: at 64 µg/mL, read-out: Activity
HEK293 [11] = assay: Cytotoxicity against human HEK293 cells assessed as cell survival at 32 microg/ml in presence of voriconazole by XTT assay
Candida albicans [12] = assay: Antifungal activity against Candida albicans ATCC 64124 measured after 48 hrs by broth microdilution analysis; assay type: functional
Candida albicans [13] = assay: Antifungal activity against Candida albicans ATCC MYA-2876 measured after 48 hrs by broth microdilution analysis; assay type: functional
[14] = Cytotoxicity against human HEK293 cells assessed as cell survival at 16 microg/ml in presence of posaconazole by XTT assay; assay type: toxicity, cell-based; details: at 16 µg/mL
Candida albicans [15] = assay: Synergistic antifungal activity against Candida albicans ATCC 90819 assessed as fractional inhibitory concentration index measured for 72 hrs in presence of voriconazole; assay type: functional
Candida albicans [16] = assay: Synergistic antifungal activity against Candida albicans ATCC 10231 assessed as compound MIC measured after 48 hrs in presence of ketoconazole by checkboard based microplate reader analysis; assay type: functional
Candida albicans [17] = assay: Partial synergistic antifungal activity against Candida albicans ATCC 10231 assessed as fractional inhibitory concentration index measured for 72 hrs in presence of posaconazole; assay type: functional
Candida albicans [18] = assay: Synergistic antifungal activity against Candida albicans ATCC 10231 assessed as compound MIC measured after 48 hrs in presence of voriconazole by checkboard based microplate reader analysis; assay type: functional
Candida albicans [19] = assay: Partial synergistic antifungal activity against Candida albicans ATCC MYA-1003 assessed as fractional inhibitory concentration index measured for 72 hrs in presence of posaconazole; assay type: functional
BEAS-2B = assay: Cytotoxicity against human BEAS-2B cells assessed as cell survival up to 4 microg/ml by XTT assay; assay type: toxicity, cell-based; details: dose < 4 µg/ml
HEK293 [20] = assay: Cytotoxicity against human HEK293 cells assessed as cell survival at 64 microg/ml by XTT assay; assay type: toxicity, cell-based; details: dose 64 µg/ml
Candida albicans [21] = assay: Antifungal activity against Candida albicans ATCC MYA-1003 measured after 48 hrs by broth microdilution analysis; assay type: functional
Candida albicans [22] = assay: Fungicidal activity against Candida albicans ATCC 64124 assessed as reduction in colony forming units at 8 times MIC incubated for 24 hrs by time kill assay; assay type: functional, organism-based
[23] = Cytotoxicity against human BEAS-2B cells assessed as cell survival at 8 microg/ml in presence of posaconazole by XTT assay; assay type: toxicity, cell-based; details: at 8 µg/mL, read-out: Activity

MIC (Candida albicans [2]): > 128 µg/mL | MIC (Candida albicans [5]): 64 µg/mL | MIC (Candida albicans [7]): > 128 µg/mL | MIC (Candida albicans [8]): 4 µg/mL | MIC (Candida albicans [12]): > 128 µg/mL | MIC (Candida albicans [13]): > 128 µg/mL | MIC (Candida albicans [16]): 32 µg/mL | MIC (Candida albicans [18]): 32 µg/mL | MIC (Candida albicans [21]): > 128 µg/mL
Compound: O=C(CCCN1CCC(O)(c2ccc(Br)cc2)CC1)c1ccc(F)cc1 [BROMPERIDOL]
fractional inhibitory concentration index (FICI) (Candida albicans [1]): 0.75 | Ratio (Candida albicans [3]): 8 | Activity (HEK293 [4]): Non-Toxic | fractional inhibitory concentration index (FICI) (Candida albicans [6]): 2 | viability at 32 microg/ml [9]: 50% | viability at 64 microg/ml [10]: 30% | Activity (HEK293 [11]): Non-Toxic | viability at 16 microg/ml [14]: 40% | fractional inhibitory concentration index (FICI) (Candida albicans [15]): 0.5 | fractional inhibitory concentration index (FICI) (Candida albicans [17]): 0.75 | fractional inhibitory concentration index (FICI) (Candida albicans [19]): 0.75 | Activity (BEAS-2B): Non-Toxic | Activity (HEK293 [20]): Non-Toxic | Activity (Candida albicans [22]): Active | viability at 8 microg/ml [23]: 71%
